Key:
[1] = Hematologic indices, serum EPO and organ histology in mice; type: in vivo, C57BL/6J mice; conditions: 14 days
Protocol: To investigate the effect of 32-134D on erythropoiesis, C57BL/6J mice (n = 4 per group) received a daily intraperitoneal injection of vehicle or 32-134D at a dose of 40 or 80 mg/kg/day for 14 days.
Figure 8 Effect of 32-134D on red blood cell indices. Mice (n = 4 per group) were treated with vehicle (V) or 32-134D (40 mg/kg/day) for 14 days and peripheral blood was analyzed for red blood cell count (RBC), hemoglobin (Hgb), hematocrit (Hct), reticulocytes, mean corpuscular hemoglobin (MCH), mean corpuscular hemoglobin concentration (MCHC), mean corpuscular volume (MCV), and absolute reticulocyte count (A) or EPO levels in serum (B).
To analyze blood parameters, male C57BL/6J mice were treated with vehicle or 32-134D by daily intraperitoneal injection for 14 days. Blood was collected by cardiac puncture into EDTA-coated tubes for analysis of hematologic indices at the Johns Hopkins Mouse Phenotyping Core. Blood collected into noncoated tubes was allowed to clot for 2 hours at room temperature, centrifuged at 2000g for 20 minutes, and serum samples were subjected to EPO ELISA according to the manufacturer’s instructions (Supplemental Table 6). Organs including heart, liver, kidney, small intestine, colon, lungs, and brain were harvested, fixed in formalin for 24 hours, and embedded in paraffin for histopathological investigation. Hematoxylin and eosin staining was performed by the Johns Hopkins Reference Histology Services.
Supplemental Figure 9. Normal organ histology in mice treated with 32-134D. Mice were administered vehicle or 32-134D (40 or 80 mg/kg) by daily intraperitoneal injection for 14 days and tissue sections from the indicated organs were stained with hematoxylin and eosin. Scale bar = 20 µm.
(§1) (1 picture or pasted object on this page, not shown here)

Hepa1-6 mouse HCC cells = experiment: RT-qPCR of hypoxia-induced gene expression in Hepa1-6 cells; type: cell-based; conditions: Hepa1-6, 1% O2, 24 hours
Protocol: Next, we analyzed Hepa1-6, which is a mouse HCC cell line. […] CXCL1, IL-6, and IL-10 were not induced by hypoxia, whereas hypoxia-induced IL-22 expression was inhibited by 32-134D (P < 0.05; Figure 3C).
Figure 3 Effect of 32-134D treatment on hypoxia-induced gene expression in Hepa1-6 cells. (A–C) Cells were exposed to 20% O2 and vehicle (white bars), 1% O2 and vehicle (blue bars), or 1% O2 and 32-134D (red bars) for 24 hours and mRNAs were quantified by RT-qPCR and normalized to white (mean ± SEM, n = 4). *P < 0.05 versus white; ^#P < 0.05 versus blue (ANOVA with Bonferroni’s post hoc test).
RNA was extracted using TRIzol Reagent. Quantitative real-time PCR was conducted using SYBR Green PCR Master Mix and reactions were run using a Bio-Rad thermal cycler. Primer sequences and reagent sources are listed in Supplemental Table 5. The mRNA expression of target genes was normalized to the expression of 18S rRNA and the fold change (FC) was calculated based on the threshold cycle (Ct) as FC = 2^–Δ(ΔCt), where ΔCt = Cttarget gene – Ct18S rRNA and Δ(ΔCt) = ΔCttreatment – ΔCtcontrol. For RNA-seq, total RNA was isolated and treated with DNase (Qiagen). The JHU GRCF High-Throughput Sequencing facility prepared libraries and performed RNA-seq. The RNA-seq data were processed and interpreted using Genialis Expressions software (https://www.genialis.com/expressions/). An automated data analysis pipeline run in the Genialis platform consisted of the following: Sequence quality checks were performed on raw and trimmed reads with FastQC. Bbduk was used to trim adapters and filter out poor quality reads. Trimmed reads were then mapped to the STAR index (ENSEMBL 100) reference genome using the STAR ([93]) aligner. Gene expression levels were quantified with featureCounts ([94]), and differential gene expression analyses were performed with DESeq2 ([95]). […] Differential expression was determined with an FDR of less than 0.05 and mRNA FC of greater than 1.5 to identify hypoxia-induced genes and genes inhibited by 32-134D. Data used in this study have been deposited in the NCBI Gene Expression Omnibus database (GEO GSE195997).
Supplemental Figure 7. Effect of 32-134D on gene expression in Hepa1-6 cells. Cells were exposed to 20% O2 and vehicle (white bar) or 1% O2 and vehicle (blue bar), 2.5-10 […]
for 24 hours and mRNAs were quantified by RT-qPCR and normalized to white (mean + SEM, n = 4). *p < 0.05 vs white; #p < 0.05 vs blue (ANOVA with Bonferroni post-test).
as §1

Hepa1-6 HCC tumors = experiment: Hepa1-6 tumor growth and eradication in syngeneic C57L mice; type: in vivo
Protocol: To test whether 32-134D inhibits HCC growth in an immunocompetent mouse model, we injected Hepa1-6 HCC cells into the flank of syngeneic C57L mice ([54]). When tumors became palpable (treatment day 1), mice received intraperitoneal injections of 32-134D (40 mg/kg/day) versus vehicle control, or anti-PD1 antibody versus IgG2a isotype control (200 μg on days 1, 4, 7, 10, 13, and 16), or both 32-134D and anti-PD1. Tumors grew very rapidly in all mice treated with vehicle or IgG2a, necessitating euthanasia on or before day 24 (Figure 4, A and C). Tumors regressed in 5 out of 12 mice treated with anti-PD1, but 2 tumors recurred after the last antibody treatment (on day 16) for a tumor eradication rate of only 25% (Figure 4D). […] Thus, addition of 32-134D increased the percentage of mice with a complete response to anti-PD1 immune checkpoint blockade from 25% to 67% (Figure 4F).
Figure 4 Effect of anti-PD1 and 32-134D on Hepa1-6 tumor growth in syngeneic mice. […]
Female nude mice (NCI Athymic NCr-nu/nu) and male C57L mice were purchased from Charles River and The Jackson Laboratory, respectively. Hep3B (8 × 10^6) and Hepa1-6 (1 × 10^7) cells were resuspended in PBS and Matrigel (1:1, vol/vol) and implanted subcutaneously in 6- to 8-week-old mice, and tumor volume was calculated as V = abc × 0.52. […]

histology of brain, colon, heart, kidney, liver, lungs, and small intestine ([1]; 40 or 80 mg/kg ip): no changes | red blood cell count, hemoglobin, hematocrit, reticulocyte count, MCV, MCH, MCHC versus vehicle ([1]; 40 or 80 mg/kg/day ip): not significantly different | serum EPO levels versus vehicle ([1]; ELISA): no significant difference
Structure (SMILES): Brc1ccc2c(-c3csc(-c4c[nH]c5c(Br)cccc45)n3)c[nH]c2c1 [Compound 32-134D]
RPL13A mRNA expression (Hepa1-6 mouse HCC cells): no effect | hypoxic induction of PDL1 mRNA (Hepa1-6 mouse HCC cells): induced in vehicle-treated but not in 32-134D–treated cells | hypoxia-induced ANGPTL4, EPO, PGF, and VEGFA mRNA expression (Hepa1-6 mouse HCC cells; 2.5-10 µM): significant dose-dependent inhibition | hypoxia-induced IL-22 expression (Hepa1-6 mouse HCC cells; P < 0.05): inhibited | hypoxia-induced expression of SLC2A1, LDHA, ENTPD1, and CA9 mRNA (Hepa1-6 mouse HCC cells; P < 0.05): inhibited | hypoxic induction of B7H4 and TIM3 mRNA (Hepa1-6 mouse HCC cells; P < 0.05): hypoxia-induced expression in vehicle-treated but not in 32-134D–treated cells | tumor growth (Hepa1-6 HCC tumors; 40 mg/kg/day ip): inhibition of tumor growth in all mice | mice with tumor eradication (Hepa1-6 HCC tumors; 12 mice per group): 4 of 12
